Laboratory results as given in patent US12546707B2, “Validation of natural matrices for therapeutic use” (priority 2024, dated 2026).

Tested on: primary human chondrocytes (HC) exposed to IL1B
Assay: In vitro cell assay representative of osteoarthritis (transcriptomics, IPA Z-score of biological functions)
Assay type: cell-based
Conditions: chondrocytes with IL1B 5 ng/ml, vs pathological state control
Description: Each time one of the batch solutions was added, fresh IL1B [5 ng/ml] was also added to the medium. The time schedule used for experimental setting is as follows: [table] At the end of described treatment periods, cells were washed with 100 μl PBS and lysed and collected in RLT buffer (Qiagen, 1053393) added with β-mercaptoethanol (Sigma, M3148) and DX reagent (Qiagen, 19088) for gene expression analysis experiments. Total RNA was extracted from cells lysates using an QIAsymphony RNA Kit (Qiagen,) with the QIAsymphony SP instrument (Qiagen). The quality and quantity of RNA was determined by A230, A260, A280 and A320 measurements on VarioskanTM LUX multimode microplate reader (Thermo ScientificTM). Integrity of RNA was checked using a 2100 expert_Eukaryote Total RNA Nano Kit (Agilent). Whole transcriptome expression profile was evaluated using a Human ClariomTM S Pico Assay HT (Applied Biosystems, ThermoFisher Scientific) on a GeneTitan MC Instrument (Applied Biosystems, ThermoFisher Scientific), following the manufacturer's instructions. […] Arrays were washed, stained and then scanned using the GeneTitan MC Instrument (Applied Biosystems, ThermoFisher Scientific) and CEL Intensity files were generated by Affymetrix GeneChip Command Console Software (AGCC, ThermoFisher Scientific). […] Ingenuity Pathways Analysis (IPA) (QIAGEN \Inc., https://www.qiagenbioinformatics.com/products/ingenuitypathway-analysis) was used, for each investigated batch to evaluate modulations of gene expression relevant for effects of interest. The patho-physiological features of state-of-the-art “Osteoarthritis condition” were considered with particular attention to the following areas involved: [table] This knowledge was used to interrogate IPA via the “IPA Bioprofiler” tool, using the following key words: osteoarthritis, arthropathy, formation of cartilage tissue, destruction of cartilage tissue, damage of cartilage, connective tissue disorder, inflammation of joint, immune cell trafficking, oxidative stress and hyaluronic acid. The use of “IPA Bioprofiler” allowed to identify clusters of expressed genes causally linked to each of the identified biological functions and the specific molecular pathway underpinning them. […] Modulation of expressed genes were shown in different intensities of blue (signifying down-modulation) or red (signifying up-modulation). The resulting expected calculated impact, based on the literature, on the related biofunctions was determined by “IPA Molecule Activity Predictor” tool (MAP) and resumed in a heatmap visualization. The colour and intensity thereof were transformed into numerical values.

[1] = hallmark Protection from anatomical damage

Compound: CC1(C)O[C@@H]2C[C@H]3[C@@H]4CCC5=CC(=O)C=C[C@]5(C)[C@@]4(F)[C@@H](O)C[C@]3(C)[C@]2(C(=O)CO)O1 [Triamcinolone acetonide, Triamcinolone Acetonide]
- Z-score values: Skeletal and muscular system development and function → articular dysfunction → joint space → Formation of cartilage tissue (hallmark Induction of proliferation): −0.31
- Z-score values: Organismal injury and abnormalities → joint inflammation and swelling, difficulty moving a joint → Osteoarthritis [1]: −0.15
- Z-score values: Skeletal and muscular system function → difficulty moving a joint → Non-traumatic arthropathy [1]: −0.17
- Z-score values: Inflammatory disease → inflammation and nociceptions → Inflammation of joint (hallmark Reduction of inflammation): −0.26
